Source: PMC1940322, “The Effect of PPARα, PPARδ, PPARγ, and PPARpan Agonists on Body Weight, Body Mass, and Serum Lipid Profiles in Diet-Induced Obese AKR/J Mice” (PPAR Research, 2007)

Legend:
Type in all cases: in vivo
[1] = tested on: diet-induced obese (DIO) AKR/J mouse; experiment: Body weight, body composition (qMR) and liver weight in diet-induced obese AKR/J mice; conditions: for BW day 0: baseline before treatment; for Fat mass day 28 / Lean mass day 28: qMR; for Liver weight: terminal collection
Experimental: The effects of monotherapy with selective PPAR agonists, combination therapy with PPARα and PPARδ, and treatment with PPARpan agonists were evaluated in four experiments in diet-induced obese (DIO) AKR/J mouse. The AKR/J mouse is a polyoma-susceptible strain originally utilized to study accelerated tumor development. This strain becomes obese and hyperinsulemic when fed a high fat diet. Age-matched, male AKR/J mice were allowed ad libitum access to Research Diet D12331 (Research Diet, Brunswick, NJ) at the Jackson Laboratories (Bar Harbor, ME) beginning at 6 weeks of age. The diet has an energy density of 5.56 kcal/g (58% kcal from fat; 26% kcal from carbohydrates, and 16% kcal from protein). The animals were allowed to become obese, achieving BW >40 grams before shipping to GlaxoSmithKline laboratory animal facility at 13 weeks of age. The mice were housed 4 per cage in standard shoebox cages and were fed the high fat diet until they reached approximately 50 grams. Age-matched lean control animals obtained from Jackson Laboratories were fed a diet of normal chow (3.04 kcal/g energy density, 12% kcal from fat, LabDiet 5001, St. Louis, MO) and used for comparison.
At the beginning of each study, the animals were weighed and body composition obtained using an EchoMRI-100 quantitative magnetic resonance (qMR, EchoMRI, Houston, TX) whole body composition analyzer. […] 16 lean control mice on standard chow were used as reference. All mice were dosed orally with vehicle (0.5% methylcellulose and 0.1% Tween 80, 10 mL/kg) for six days prior to the beginning of dosing for acclimation to handling and treatment before drug treatment was initiated.
(§1) In each experiment, BW of each animal was measured and recorded three times weekly throughout the treatment period. Body mass was obtained weekly on days 0, 7, 13, 20, and 27 of treatment. The effects of selective PPARα, δ, and γ agonists on food consumption were also assessed. Food consumption is expressed as total energy consumed (kcal) over a 24-period and as cumulative consumption over the course of the experiment.
(§2) On the final day of each experiment, a terminal blood sample (800–1000 μL) was obtained via cardiac puncture under isoflurane anesthesia. Whole blood was placed in a Terumo Capiject blood collection tube (Terumo Medical Corp., Elkton, Md, USA), allowed to sit at room temperature for 20 minutes then centrifuged to obtain serum. Serum levels of glucose, triglycerides, glycerol, nonesterified fatty acids, total cholesterol, the high-density lipoprotein cholesterol, and β-hydroxybutyrate were determined in all mice using an Olympus AU640 clinical chemistry immuno-analyzer (Olympus America Inc., Melville, NY, USA). In addition, liver weights were obtained following the terminal blood sample on the final day of the study and samples were used to determine liver fatty acid oxidation activity.
(§3) Experiment 1 was designed to study the effects of a selective PPARα agonist and PPARδ agonist as mono and combination therapy. 48 mice were sorted into 6 groups and blocked such that initial BW and body composition were not different between groups. […] Two additional groups of mice were dosed for the first 14 days with either a PPARα agonist or a PPARδ agonist alone. At day 15, the PPARδ agonist was added to the treatment regimen of animals dosed with PPARα, and the PPARα agonist was added to the dosing material of animals previously dosed with PPARδ alone. The sixth group was dosed with both the PPARα and PPARδ agonists for the entire 28-day period. BW and food consumption were assessed 3 times per week and body composition was measured weekly.
In Experiment 2, 32 mice were sorted into 4 groups (n = 8/group) and dosed with vehicle and a selective PPARγ agonist (GW7845, 3 mg/kg) for 28 days. Rimonabant (RIM, 10 or 30 mg/kg, q.d.), a CB1 receptor antagonist, was used as a positive control for weight loss. […]

[2] = tested on: diet-induced obese (DIO) AKR/J mouse; experiment: Food consumption in diet-induced obese AKR/J mice; conditions: compared to vehicle-treated animals; doses and regimen as in methods
Experimental: as §1
The fat content of Research Diets D12331 chow results in pellets that crumbles making it difficult to quantify food consumption thus, Research Diets D12451 chow (4.7 kcal/g (45% kcal from fat, 35% kcal from carbohydrates and 20% kcal from protein)) was used in studies where food consumption was determined as these pellets are more solid. The animals were transitioned two weeks before compound dosing from Research Diets D12331 chow to Research Diets D12451 chow. Previous experiments (data not presented) have shown that animals fed this diet maintain the same BW and fat mass level as observed at the time of transition.
as §3
In Experiment 2, 32 mice were sorted into 4 groups (n = 8/group) and dosed with vehicle and a selective PPARγ agonist (GW7845, 3 mg/kg) for 28 days. Rimonabant (RIM, 10 or 30 mg/kg, q.d.), a CB1 receptor antagonist, was used as a positive control for weight loss. As in Experiment 1, BW and food consumption were determined 3 times per week and body composition was measured weekly.

[3] = tested on: diet-induced obese (DIO) AKR/J mouse; experiment: Serum clinical chemistry of terminal blood samples, DIO AKR/J mice; conditions: serum, end of treatment, 28 days
Experimental: as §2

In the case of `Cc1c(C(=O)NN2CCCCC2)nn(-c2ccc(Cl)cc2Cl)c1-c1ccc(Cl)cc1` [RIM, Rimonabant, reference compound], the “BW day 28” value ([1]; 10 mg/kg oral, 28 days) is reported as 44.1 ± 1.3 grams, the “BW day 28” value ([1]; 30 mg/kg oral, 28 days) is reported as 41.8 ± 0.5 grams and the “effect on FM (in words)” value ([1]; 28 days, doses as in methods) is reported as “decreased FM in a dose-dependent manner”. For the same molecule, the “BW day 0” value ([1]; group dosed 10 mg/kg oral) was 50.6 ± 0.8 grams, the “BW day 0” value ([1]; group dosed 30 mg/kg oral) was 51.0 ± 0.7 grams and the “reduction of BW” value ([1]; highest dose (30 mg/kg), within the first 10 days of treatment) was 17%. The “effect on BW (in words)” value ([1]; oral, 28 days, GW9578 1, GW0742 30, GW7845 3, RIM 10 and 30 mg/kg, PPARpan agonists) was “significant, dose-related decreases of BW”, the “Fat mass day 28” value ([1]; 10 mg/kg oral, 28 days) was 15.0 ± 0.9 grams and the “Lean mass day 28” value ([1]; 10 mg/kg oral, 28 days) was 25.2 ± 0.8 grams. For the same molecule, the “Fat mass day 28” value ([1]; 30 mg/kg oral, 28 days) was 11.6 ± 0.3 grams, the “Lean mass day 28” value ([1]; 30 mg/kg oral, 28 days) was 26.5 ± 0.5 grams and the Liver weight ([1]; 10 mg/kg oral, 28 days) was 2.0 ± 0.1 grams. The Liver weight ([1]; 30 mg/kg oral, 28 days) was 2.0 ± 0.1 grams, the “effect on food consumption (in words)” value [2] was “dose-related decreases in food consumption” and the Cholesterol ([3]; 10 mg/kg oral) was 147.3 ± 9.1 mg/dL. The Glucose ([3]; 10 mg/kg oral) was 230.1 ± 16.6 mg/dL, the HDL-C ([3]; 10 mg/kg oral) was 95.1 ± 4.6 mg/dL and the Insulin ([3]; 10 mg/kg oral) was 7.2 ± 2.5 ng/mL. The NEFA ([3]; 10 mg/kg oral) was 0.8 ± 0.05 mEq/L, the Triglyceride ([3]; 10 mg/kg oral) was 181.4 ± 36.1 mg/dL and the bHBA ([3]; 10 mg/kg oral) was 2.5 ± 0.2 mg/dL. For the same molecule, the Cholesterol ([3]; 30 mg/kg oral) was 143.4 ± 4.0 mg/dL, the Glucose ([3]; 30 mg/kg oral) was 215.3 ± 13.0 mg/dL and the HDL-C ([3]; 30 mg/kg oral) was 116.9 ± 2.6 mg/dL. It also gave an Insulin ([3]; 30 mg/kg oral) of 3.4 ± 0.7 ng/mL, an NEFA ([3]; 30 mg/kg oral) of 0.9 ± 0.02 mEq/L and a Triglyceride ([3]; 30 mg/kg oral) of 159.7 ± 16.1 mg/dL. For the same molecule, the bHBA ([3]; 30 mg/kg oral) was 1.8 ± 0.2 mg/dL.
